In PubChem BioAssay (NCI):
Values joined by “and” are separate entries in the source; they are usually repeats but may differ in a detail not shown here. Equal entries are not always repeated.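 Compound exposure: 48 hours, 5 concentrations, 96-well plates. GI50 = concentration required for 50% inhibition of growth. Definition used: TGI = concentration required for complete inhibition of growth.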

Tests used:
Test in all cases: NCI tumour cell line growth inhibition, 48 h
[1] = system: CAKI-1 renal
[2] = system: CCRF-CEM leukemia
[3] = system: LOX IMVI melanoma
[4] = system: M14 melanoma
[5] = system: MDA-MB-435
[6] = system: MOLT-4 leukemia
[7] = system: OVCAR-5 ovarian
[8] = system: PC-3 prostate
[9] = system: SK-MEL-28 melanoma
[10] = system: SNB-75 CNS

Row | SMILES | GI50 [1] [µM] | TGI [1] | GI50 [2] [µM] | TGI [2] | GI50 [3] [µM] | TGI [3] | GI50 [4] [µM] | TGI [4] [µM] | GI50 [5] [µM] | TGI [5] [µM] | GI50 [6] [µM] | TGI [6] | GI50 [7] [µM] | TGI [7] | GI50 [8] [µM] | TGI [8] [µM] | GI50 [9] [µM] | TGI [9] | GI50 [10] [µM] | TGI [10]
1 | CCn1c(-c2nonc2N)nc2c(C#CC(C)(C)O)ncc(OCC3CCNCC3)c21 | 17.2 | > 25 µM | 4.5 | > 25 µM | 7.04 | > 25 µM | 13.4 | > 25 | 13.7 | > 25 | 8.3 | > 25 µM | > 25 | > 25 µM | 7.48 | > 25 | 10 | > 25 µM | 2.74 | > 23.3 µM
2 | CCN1CCN(c2nc(NNC(=O)c3cccc(OC)c3)nc(N3CCN(C(c4ccccc4)c4ccccc4)CC3)n2)CC1 | 1.54 | 3.1 µM | 2.6 | > 100 µM | 1.62 | 2.97 µM | 1.67 | 3.31 | 1.7 | 3.19 | 2.03 | 4.72 µM | 2.83 | 9.97 µM | 2.24 | 13.4 | 1.8 | 3.34 µM | 0.201 | 7.71 µM
3 | Fc1ccc(-c2ncn(C3CCNCC3)c2-c2ccnc(Oc3ccc(Oc4ccccc4)cc3)n2)cc1 | 3.92 | 7.74 µM | 5.22 | 10.3 µM | 3.15 | 7.09 µM | 4.31 | 7.99 | 3.92 | 8.46 | 3.31 | 7.59 µM | 4.1 | 7.67 µM | 3.49 | 6.87 | 4.27 | 7.82 µM | 3.4 | 6.67 µM
4 | CCCCCCCC(=O)O[C@H]1[C@H]2[C@@H](CC1(C)C)C(=O)[C@]13O[C@H]1C(=O)[C@]1(CO1)[C@]23C | – | 5.82 µM and 5.58 µM | 0.593 | 3.57 µM and 1.58 µM | 2.16 | 5.63 µM and 5.48 µM | – | 11.3 | – | 75 | 1.17 | 10.9 µM and 2.68 µM | 15.3 | 28.8 µM and 25.9 µM | – | 30.8 | 5.87 | 12.7 µM and 6.55 µM | 14.2 | 29.4 µM and 53.6 µM
5 | COC(=O)[C@@H](C)C[C@H](Cc1ccccc1)NC(=O)c1csc([C@@H](C[C@H](C(C)C)N(C)C(=O)[C@@H](NC(=O)CN(C)C)C2CC2)OC(C)=O)n1 | 1.3 | > 16.5 µM | 0.0154 | > 3.28 µM | 0.0301 | > 16.5 µM | 0.0185 | – | 0.00192 | < 0.0153 | 0.0501 | > 16.5 µM | 0.838 | > 16.5 µM | 0.0267 | > 16.5 | 10.2 | > 16.5 µM | 0.00696 | > 16.5 µM
6 | O=C(N/N=C\c1cc(Br)cc(Br)c1O)N/N=C/c1cc(Br)cc(Br)c1O | 3.29 | 15.9 µM | 0.534 | 4.48 µM | 2.57 | 12.1 µM | 4.29 | 19 | 2.67 | 17.8 | 2.14 | 11.4 µM | 10.6 | 27.6 µM | 2.9 | 16.7 | 2.79 | 16.1 µM | 1.11 | 15.6 µM
